These results are taken from patent publication US6495699B2, “Metalloproteinase inhibitors, pharmaceutical compositions containing them, and their use” (Agouron Pharmaceuticals Inc., priority 1996, dated 2002).

Series [1] concerns the target T1, human collagenase-3 (Coll3) (Homo sapiens, UniProt P45452).
T1 construct: the catalytic domain was liberated by treatment with 2 mM APMA at room temperature overnight; ubiquitin (N, cleaved yes); made in house; host or cells: E. coli
In words: Fluorometric MCA-peptide hydrolysis assay, collagenase-3 (Coll3). Type of series: biochemical. The conditions noted are these: apparent Ki; 10 μM MCA peptide substrate, 37° C., pH 7.5; read-out: Coll3 (Ki,app).

Series [2] concerns the target T2, catalytic domain of human stromelysin (Hsln) (Homo sapiens, UniProt P08254).
T2 construct: The catalytic domain of human stromelysin (Hsln) was obtained by expression and purification of a C-terminally truncated prostromelysin-1; made in house; host or cells: E. coli BL21
In words: Fluorometric MCA-peptide hydrolysis assay, stromelysin (Hsln). It is filed as biochemical. The conditions noted are these: apparent Ki; 10 μM MCA peptide substrate, 37° C., pH 7.5; read-out: Hsln (Ki,app). The method, boiled down: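 APMA-activated E. coli–expressed catalytic domain, with 10 μM MCA-Pro-Leu-Gly-Leu-DPA-Ala-Arg-NH2 at 37 °C. Buffer was pH 7.5 Tricine with NaCl, CaCl2, zinc acetate and 2% final DMSO; fluorescence read at ex 328/em 393 nm over 60 min. Ki,app from steady-state rates fitted to competitive or Morrison tight-binding equations.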

Series [3] concerns the target T3, fibroblast collagenase-1 catalytic domain (HFC) (Homo sapiens, UniProt P03956).
T3 construct: The catalytic domain of human collagenase-1 was expressed as a fusion protein with ubiquitin in E. coli; ubiquitin (cleaved yes); made in house; host or cells: E. coli
T3 sequence (P03956 100-269 limits assumed): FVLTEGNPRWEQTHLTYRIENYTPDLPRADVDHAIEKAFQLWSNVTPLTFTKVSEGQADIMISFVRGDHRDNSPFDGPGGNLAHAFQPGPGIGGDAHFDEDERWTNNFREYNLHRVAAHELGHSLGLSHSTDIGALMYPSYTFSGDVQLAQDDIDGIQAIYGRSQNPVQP
In words: Fluorometric MCA-peptide hydrolysis assay, fibroblast collagenase-1 (HFC). It is filed as biochemical. The conditions noted are these: apparent Ki; 10 μM MCA peptide substrate, 37° C., pH 7.5; read-out: HFC (Ki,app). As for the experimental part:
The catalytic domain of human collagenase-1 was expressed as a fusion protein with ubiquitin in E. coli (see Gehring, E. R., J Biol. Chem., 1995, 270, 22507). After purification of the fusion protein, the fibroblast collagenase-1 catalytic domain (HFC) was released either by treatment with purified, active stromelysin-1 (1:50 w/w ratio), which generated nearly 100% N-terminal Phe1, or by autoprocessing the concentrated collagenase-1 fusion and then incubating at 37° C. for 1 hour. Final purification was completed using zinc chelate chromatography.
Assays were performed in assay buffer (50 mM Tricine pH 7.5, 200 mM sodium chloride, 10 mM calcium chloride, 0.5 mM zinc acetate containing 2% dimethyl sulfoxide (DMSO)) once the substrate and inhibitor were diluted into it. Stock solutions of inhibitors were prepared in 100% DMSO. Stock solutions of the substrate were prepared in 100% DMSO at a concentration of 6 mM.
The assay method was based on the hydrolysis of MCA-Pro-Leu-Gly-Leu-DPA-Ala-Arg-NH2 (American Peptide Co.) at 37° C. (see Knight, C. G. et al., FEBS, 1992, 296, 263-266). The fluorescence changes were monitored with a Perkin-Elmer LS-50B fluorimeter using an excitation wavelength of 328 nm and an emission wavelength of 393 nm. The substrate concentration used in the assays was 10 μM. The inhibitor was diluted into the assays from a solution in 100% DMSO, and controls substituted an equal volume of DMSO so that the final DMSO concentration from inhibitor and substrate dilution in all assays was 2%. […] Proper determination of steady-state rates of substrate cleavage required assay lengths of 60 minutes to allow for complete equilibration of the enzyme-inhibitor complex.
The Km for the MCA peptide substrate with the matrix metalloproteinases is quite high and exceeds its solubility under assay conditions. Consequently, the apparent Ki (Ki,app) was determined to describe the strength of inhibition. However, in this case, Ki,app would be essentially equal to Ki since [S]<<Km. For the determination of Ki,app, the concentration of the inhibitor was varied at a constant and low concentration of substrate and the steady-state rates of fluorescence change determined. In most cases absorptive quench due to the presence of ligand was not observed. For slow-binding inhibitors, onset of inhibition curves were collected for at least 45 minutes so that equilibrium was established. Steady-state rates of fluorescence change were obtained by fitting a curve to an equation for a single exponential decay containing a linear phase. The fitted value of the linear phase was taken as the steady-state rate. The steady-state rates were fitted to the Michaelis equation describing competitive inhibition by non-linear methods. Data resulting from tight-binding inhibition was analyzed, and Ki,app determined by fitting the data to the tight-binding equation of Morrison (Biochem. Biophys. Acta, vol. 185, pp. 269-286 (1969)) by non-linear methods.

The target in series [4] is T4, human progelatinase A (GelA), catalytic and fibronectin-like portion (Homo sapiens, UniProt P08253).
T4 construct: The catalytic and fibronectin-like portion of human progelatinase A (GelA) was expressed as a fusion protein with ubiquitin; ubiquitin; made in house; host or cells: E. coli
T4 sequence (P08253 110-465 limits assumed): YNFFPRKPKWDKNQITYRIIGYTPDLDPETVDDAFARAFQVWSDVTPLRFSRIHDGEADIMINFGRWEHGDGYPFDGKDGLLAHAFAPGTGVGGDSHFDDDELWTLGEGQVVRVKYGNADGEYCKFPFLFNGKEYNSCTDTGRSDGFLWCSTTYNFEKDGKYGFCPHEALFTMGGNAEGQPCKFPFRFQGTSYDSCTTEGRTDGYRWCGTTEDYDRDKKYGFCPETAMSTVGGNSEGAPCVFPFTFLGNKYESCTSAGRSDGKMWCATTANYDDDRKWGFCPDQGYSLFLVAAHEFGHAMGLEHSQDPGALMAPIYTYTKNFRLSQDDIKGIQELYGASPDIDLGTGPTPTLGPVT
In words: Fluorometric MCA-peptide hydrolysis assay, gelatinase A (GelA). Type of series: biochemical. The conditions noted are these: apparent Ki; 10 μM MCA peptide substrate, 37° C., pH 7.5. The method, boiled down:
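E. coli-expressed ubiquitin fusion of human proGelA catalytic plus fibronectin-like domains, autoactivated; 10 μM MCA-Pro-Leu-Gly-Leu-DPA-Ala-Arg-NH2, pH 7.5 Tricine/NaCl/CaCl2/Zn buffer, 2% DMSO, 37° C, 60 min. Fluorescence 328/393 nm; steady-state rates fitted to competitive inhibition or Morrison tight-binding equation giving Ki,app (≈Ki since [S]<<Km).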

A further series addresses T5, Human matrilysin (Matr) (Homo sapiens, UniProt P09237).
T5 construct: the catalytic domain was liberated by treatment with 2 mM APMA at 37° C. for 2 hours; ubiquitin (cleaved yes); made in house; host or cells: E. coli
T5 sequence (P09237 95-267): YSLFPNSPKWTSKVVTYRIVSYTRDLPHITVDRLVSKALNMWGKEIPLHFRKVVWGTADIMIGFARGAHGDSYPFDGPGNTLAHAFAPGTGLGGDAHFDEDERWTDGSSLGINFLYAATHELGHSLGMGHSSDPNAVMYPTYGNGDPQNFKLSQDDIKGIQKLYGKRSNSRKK
In words: Fluorometric MCA-peptide hydrolysis assay, matrilysin (Matr). Conditions: apparent Ki; 10 μM MCA peptide substrate, 37° C., pH 7.5; read-out: Matr (Ki,app). Type of series: biochemical. In short, it runs like this:
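Catalytic domain of E. coli-expressed human matrilysin assayed at 37° C, pH 7.5 Tricine buffer, 2% DMSO, with 10 μM MCA-Pro-Leu-Gly-Leu-DPA-Ala-Arg-NH2; fluorescence ex 328/em 393 nm over 60 min. Ki,app from steady-state rates fitted to competitive inhibition or Morrison tight-binding equation.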

T2 sequence (P08254 100-272 limits assumed): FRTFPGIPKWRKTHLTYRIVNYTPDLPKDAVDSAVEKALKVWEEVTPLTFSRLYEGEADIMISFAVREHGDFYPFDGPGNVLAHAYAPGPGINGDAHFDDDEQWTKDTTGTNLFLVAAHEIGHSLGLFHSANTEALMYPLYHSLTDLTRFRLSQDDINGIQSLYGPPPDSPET

The compound `CNC(=O)[C@@H](NC(=O)C(CC(=O)O)n1cnc(-c2ccc(-c3ccccc3)cc2)c1)C(C)(C)C` (mixture of isomers) [Example 18(c)] had a melting point of 187 to 188.2 °C. Also, the Ki in series [1] is 31 nM. For the same compound, the Ki in series [2] came to 180 nM. The Ki in series [3] is 24000 nM.

`CNC(=O)[C@@H](NC(=O)[C@@H](CC(=O)O)n1ccc(-c2ccncc2)c1)C(C)(C)C` [Example 1(d), N-[2,2-Dimethyl-1(S)-(methylcarbamoyl)propyl]-3(R)-[3-(pyridin-4-yl)-1H-pyrrol-1-yl]succinamic Acid] displayed a melting point of 145 to 148 °C. Further, in series [1], the Ki was 24 nM. For the same compound, in series [2], the Ki was 1220 nM. Besides, in series [4], the GelA (Ki,app) stood at 3.9 nM. The Ki in series [3] is 4500 nM.

The compound `CCOC(=O)c1ccc(NC(=O)[C@H](CC(C)C)NC(=O)[C@@H](CC(=O)O)n2cccc2)cc1` [Example 1(n), 4-[2S-(3-Carboxy-2(R)-1H-pyrrol-1-yl-propionylamido)-4-methyl-pentanoylamino]benzoic Acid Ethyl Ester] showed a melting point of 111 to 114 °C. Further, the Ki in series [1] was 8500 nM. The Ki in series [2] amounted to 2000 nM. On Human matrilysin (Matr), the Ki is greater than 10000 nM. Besides, in series [3], the Ki is 1900 nM.

As for `O=C(O)C[C@H](C(=O)N[C@H]1Cc2cn(c3ccccc23)CCCCCCNC1=O)n1cccc1` [Example 1(o), N-(9-oxo-1,8-Diaza-tricyclo[10.6.1.0^13,18]nonadeca-12(19), 13,15,17-tetraen-10S-yl)-3(R)-1H-pyrrol-1-yl-succinamic Acid], the melting point was 139 to 144 °C. In series [2], the Ki was greater than 10000 nM. Also, the Ki at Human matrilysin (Matr) came to 15000 nM. In addition, the Ki in series [3] worked out at 51500 nM.

Consider `O=C(O)C[C@H](C(=O)N[C@H]1Cc2cn(c3ccccc23)CCOCCNC1=O)n1ccc(-c2ccc(-c3ccncc3)cc2)c1` [Example 7(a), N-(8-Oxo-4-oxa-1,7-diazatricyclo[9.6.1.0^12,17]octadeca-11(18),12,14,16-tetraen-9(S)-yl)-3(R)-[3-[4-(pyridin-4-yl)phenyl]-1H-pyrrol-1-yl]succinamic Acid], for which the melting point is > 172 °C (dec.). Moreover, the Ki in series [1] amounted to 0.013 nM. Moreover, the Ki in series [2] is 2 nM. In addition, the Ki on Human matrilysin (Matr) was 640 nM. The GelA (Ki,app) in series [4] is 0.015 nM. The Ki in series [3] came to 333 nM.

For `O=C(O)C[C@H](C(=O)N[C@H](CO)Cc1ccccc1)c1ccn(-c2ccc(-c3ccccc3)cc2)c1` [Example 13], the melting point fell in the range of 151 to 154 °C. For the same compound, the Ki in series [1] is 21 nM. Also, in series [2], the Ki was 35 nM. At Human matrilysin (Matr), the Ki is 16900 nM. The GelA (Ki,app) in series [4] is 1.7 nM. In addition, the Ki in series [3] worked out at 72000 nM.

Turning to `COC(=O)c1ccc(NC(=O)[C@H](CC(C)C)NC(=O)[C@@H](CC(=O)O)c2cccs2)cc1` [Example 17(a), 4-[2(S)-(2(R)-Carboxymethyl-2-(thien-2-yl)acetylamino]-4-methyl-valeroyl]-aminobenzoic Acid Methyl Ester], the melting point lay in the range of 197 to 200 °C. Besides, the Ki in series [2] is 965 nM. For the same compound, the Ki at Human matrilysin (Matr) worked out at 454 nM. Further, the Ki in series [3] was found to be 32000 nM.

As to `COC(=O)c1ccc(NC(=O)[C@H](CC(C)C)NC(=O)[C@@H](CC(=O)O)c2ccsc2)cc1` [Example 17(b), 4-[2(S)-[2(R)-Carboxymethyl-2-(thien-3-yl)acetylamino]-4-methyl-valeroyl]-aminobenzoic Acid Methyl Ester], the melting point is 199 to 201 °C. Moreover, in series [2], the Ki stood at 720 nM. Moreover, the Ki at Human matrilysin (Matr) is 309 nM. For the same compound, the Ki in series [3] was found to be 20000 nM.

`CC(C)(C)[C@@H](CO)NC(=O)[C@@H](CC(=O)NO)n1cnc(-c2ccc(-c3ccccc3)cc2)c1` [Example 19(c), 3(R)-(3-Biphenyl-4-yl-1H-imidazol-1-yl)-N^4-(2,2-dimethyl-1(S)-hydroxymethylpropyl)-N^1-hydroxy-succindiamide] registered a melting point of 157.5 to 160 °C. For the same compound, in series [1], the Ki came to 6.5 nM. Moreover, the Ki in series [2] is 17 nM. Further, the Ki in series [3] worked out at 45000 nM.

In turn, `CC(C)(C)[C@@H](CO)NC(=O)[C@H](CC(=O)NO)n1cnc(-c2ccc(-c3ccccc3)cc2)c1` [Example 19(d), 3(S)-(3-Biphenyl-4-yl-1H-imidazol-1-yl)-N^4-(2,2-dimethyl-1(S)-hydroxymethylpropyl)-N^1-hydroxy-succindiamide] returned a melting point of 134.5 to 136.5 °C. The Ki in series [1] was found to be 43 nM. Besides, the Ki in series [2] came out at 120 nM. The Ki in series [3] was greater than 100000 nM.

By melting point is commonly meant the temperature, or range, at which the solid turns liquid.
